Each molecule was assayed against T1, human V1A receptor (Homo sapiens, UniProt P37288) (assay: V1A filter binding assay ([3H]-AVP binding to CHO-hV1A membranes)).
T1 construct: expressed in transfected cells; host or cells: CHO cells (CHO-hV1A line provided by Marc Thibonnier, Case Western Reserve University)
Protocol: 1.0 V1A Filter Binding Assay
Receptor binding assays were performed on cellular membranes prepared from CHO cells stably expressing the human V1A receptor, (CHO-hV1A). The CHO-hV1A cell line was kindly provided under a licensing agreement by Marc Thibonnier, Dept. of Medicine, Case Western Reserve University School of Medicine, Cleveland, Ohio. CHO-hV1A cells were routinely maintained at 37° C. in humidified atmosphere with 5% CO2 in DMEM/Hams F12 nutrient mix supplemented with 10% fetal bovine serum, 2 mM L-glutamine, 15 mM HEPES and 400 μg/ml G418. For bulk production of cell pellets, adherent CHO-hV1A cells were grown to confluency of 90-100% in 850 cm^2 roller bottles containing a medium of DMEM/Hams F12 Nutrient Mix supplemented with 10% fetal bovine serum, 2 mM L-glutamine and 15 mM HEPES. Confluent CHO-hV1A cells were washed with phosphate-buffered saline (PBS), harvested into ice cold PBS and centrifuged at 1,000 rpm. Cell pellets were stored at −80° C. until use. Cell pellets were thawed on ice and homogenised in membrane preparation buffer consisting of 50 mM Tris-HCl, pH 7.4, 5 mM MgCl2 and supplemented with a protease inhibitor cocktail, (Roche). The cell homogenate was centrifuged at 1000 rpm, 10 min, 4° C. and the supernatant was removed and stored on ice. The remaining pellet was homogenised and centrifuged as before. The supernatants were pooled and centrifuged at 25,000×g for 30 min at 4° C. […] Protein concentration was determined using Bradford reagent and BSA as a standard.
Protein linearity followed by saturation binding studies were performed on each new batch of membrane. […] Saturation binding studies were then performed using various concentrations of [^3H]-arginine vasopressin, [^3H]-AVP (0.05 nM-100 nM) and the Kd and Bmax determined.
Compounds were tested for their effects on [^3H]-AVP binding to CHO-hV1A membranes, (^3H-AVP; specific activity 65.5 Ci/mmol; NEN Life Sciences). […] The plates were sealed and counted on a TopCount Microplate Scintillation Counter (Packard Instruments). Non-specific binding (NSB) was determined using 1 μM unlabelled d(CH2)5Tyr(Me)AVP ([β-mercapto-β,β-cyclopentamethylenepropionyl, 0-Me-Tyr^2,Arg^8]-vasopressin ) (βMCPVP), (Sigma). The radioligand binding data was analysed using a four parameter logistic equation with the min forced to 0%. […] Specific binding was calculated by subtracting the mean NSB cpm from the mean Total cpm. For test compounds the amount of ligand bound to the receptor was expressed as % bound=(sample cpm−mean NSB cpm)/specific binding cpm×100. […] The inhibitory dissociation constant (Ki) was calculated using the Cheng-Prusoff equation: Ki=IC50/(1+[L]/Kd) where [L] is the concentration of ligand present in the well and Kd is the dissociation constant of the radioligand obtained from Scatchard plot analysis. […]

T1 sequence (P37288 whole entry): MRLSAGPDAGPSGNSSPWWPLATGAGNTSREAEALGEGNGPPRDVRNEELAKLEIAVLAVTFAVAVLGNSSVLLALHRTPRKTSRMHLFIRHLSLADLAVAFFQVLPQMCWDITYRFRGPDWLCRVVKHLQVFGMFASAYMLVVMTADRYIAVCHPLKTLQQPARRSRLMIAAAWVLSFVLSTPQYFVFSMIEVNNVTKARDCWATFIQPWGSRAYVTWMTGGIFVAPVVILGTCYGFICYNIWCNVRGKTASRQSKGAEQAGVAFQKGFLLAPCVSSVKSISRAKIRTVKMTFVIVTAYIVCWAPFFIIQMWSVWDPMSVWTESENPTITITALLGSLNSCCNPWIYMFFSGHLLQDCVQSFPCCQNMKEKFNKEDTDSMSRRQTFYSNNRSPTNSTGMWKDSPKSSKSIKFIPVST

| Ki | Structure (SMILES) |
| --- | --- |
| 9.69 nM | COCc1nnc(N2Cc3ccccc3C2)n1-c1ccc(Cl)cc1 [Example 1, 2-[4-(4-Chlorophenyl)-5-(methoxymethyl)-4H-1,2,4-triazol-3-yl]isoindoline] |
| 6.58 nM | Cc1nnc(N2CCC3(CC2)OCc2ccccc23)n1-c1ccc(Cl)cc1 [Example 6, 1′-[4-(4-Chlorophenyl)-5-methyl-4H-1,2,4-triazol-3-yl]-3H-spiro[2-benzofuran-1,4′-piperidine]] |
| 0.88 nM | Clc1ccc(-n2c(Cn3nccn3)nnc2N2Cc3ccccc3C2)cc1 [Example 8, 2-[4-(4-Chlorophenyl)-5-(2H-1,2,3-triazol-2-ylmethyl)-4H-1,2,4-triazol-3-yl]isoindoline] |
| 0.47 nM | OCc1ccc2c(c1)CN(c1nnc(Cn3nccn3)n1-c1ccc(Cl)cc1)C2 [Example 10, {2-[4-(4-Chlorophenyl)-5-(2H-1,2,3-triazol-2-ylmethyl)-4H-1,2,4-triazol-3-yl]-2,3-dihydro-1H-isoindol-5-yl}methanol] |
